Measurements as given in PubChem BioAssay AID720726 (Broad Institute, 2013).
Activity calls are given as the source filed them.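 How the source made its calls: active means fitted dose curve rising to 40 percent activity within the top usable dose; inconclusive means flat curve between 30 and 70 percent, or poor fit; inactive means the rest, including signal moving the wrong way.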

Tested on: not listed separately
Experiment: activators raising endogenous miR-122 levels, dose response, orthogonal assay, cell-based, Huh7, qRT-PCR, dry powder (AID 720726)
Settings: Huh7 miR-122 levels, qRT-PCR, 48 h; at 30 µM (top of the series)

Compound | miR-122 fold change
CN1C(=O)c2cc(NC(=O)c3cccc(F)c3)ccc2OC[C@@H]2O[C@@H](CC(=O)O)CC[C@H]21 | 0.927 fold change (inactive)

Same assay, conditions: Huh7 miR-122 levels, qRT-PCR, 48 h; at 35 µM (top of the series)

Compound | miR-122 fold change
COc1ccc(-c2cnc3c(c2)C(=O)N([C@@H](C)CO)C[C@H](C)[C@H](CN(C)S(=O)(=O)c2ccc(OC)cc2)O3)cc1 | 1.26 fold change (inactive)
O=C(c1ccc(CN2CCOCC2)cc1)N1CCc2ccccc21 | 1 fold change (inactive)
CCOC(=O)N1CCC(NC(=O)c2ccc3nc(N4CCC(C)CC4)sc3c2)CC1 | 1 fold change (inactive)
O=C(Nc1ccc(-c2nc3ccccc3o2)cc1)c1cc(-n2cnnc2)ccc1Cl | 0.17 fold change (inactive)
CN(CC(=O)Nc1cccc(Cl)c1)S(=O)(=O)c1ccc2c(c1)n(C)c(=O)c(=O)n2C | 1.27 fold change (inactive)
CN1C(=O)c2cc(NC(=O)c3cccc(F)c3)ccc2OC[C@@H]2O[C@@H](CC(=O)O)CC[C@@H]21 | 0.94 fold change (inactive)
Nc1ccc(Oc2ccc(Br)cc2)cc1 | 0.505 fold change (inactive)
C[C@@H]1CN([C@@H](C)CO)S(=O)(=O)c2ccc(C#Cc3ccncc3)cc2O[C@H]1CN(C)C(=O)C1CCOCC1 | 0.639 fold change (inactive)
COc1cccc(C(=O)Nc2ccc3c(c2)C(=O)N(C)C[C@@H](OC)[C@@H](C)CN[C@@H](C)CO3)c1 | 1.15 fold change (inactive)
COCC(=O)N(C)C[C@H]1Oc2cc(-c3ccc(C#N)cc3)ccc2S(=O)(=O)N([C@H](C)CO)C[C@H]1C | 0.895 fold change (inactive)
C[C@@H]1CN([C@H](C)CO)S(=O)(=O)c2ccc(C#Cc3ccncc3)cc2O[C@H]1CN(C)C(=O)C1CCOCC1 | 0.486 fold change (inactive)
Cc1cc(C(C)(C)C)cc(S(=O)(=O)N2CCOCC2)c1C | 0.977 fold change (inactive)
COCC(=O)N(C)C[C@H]1Oc2cc(-c3ccc(C#N)cc3)ccc2S(=O)(=O)N([C@@H](C)CO)C[C@H]1C | 1.17 fold change (inactive)
O=C(CNCCC1=CCCCC1)Nc1ccccc1N1CCCCCC1 | 0.489 fold change (inactive)
O=S(=O)(NCCc1ccncc1)c1ccccc1 | 1.01 fold change (inactive)
COCC(=O)N(C)C[C@H]1Oc2cc(-c3ccccc3F)ccc2S(=O)(=O)N([C@@H](C)CO)C[C@H]1C | 0.823 fold change (inactive)
CN1C(=O)c2cc(NC(=O)c3cccc(F)c3)ccc2OC[C@H]2O[C@H](CC(=O)O)CC[C@@H]21 | 0.869 fold change (inactive)
CN1C(=O)c2cc(NC(=O)c3cccc(F)c3)ccc2OC[C@H]2O[C@@H](CC(=O)O)CC[C@H]21 | 1.38 fold change (inactive)
CNC[C@@H]1Oc2cc(C#CC3CCCCC3)ccc2S(=O)(=O)N([C@@H](C)CO)C[C@@H]1C | 1.07 fold change (inactive)
C/C=C/c1cnc2c(c1)C(=O)N([C@@H](C)CO)C[C@H](C)[C@H](CN(C)S(=O)(=O)c1ccc(OC)cc1)O2 | 1.05 fold change (inactive)

Compound | miR-122 fold change
CN1C(=O)c2cc(NC(=O)c3cccc(F)c3)ccc2OC[C@H]2O[C@@H](CC(=O)O)CC[C@@H]21 | 1.24 fold change (inactive)
C[C@H]1CN([C@@H](C)CO)C(=O)c2cc(-c3ccc(C#N)cc3)cnc2O[C@H]1CN(C)Cc1cncnc1 | 0.987 fold change (inactive)
CN1C(=O)c2cc(NC(=O)c3cccc(F)c3)ccc2OC[C@@H]2O[C@H](CC(=O)O)CC[C@@H]21 | 0.92 fold change (inactive)
OCc1ccc(-c2nn(Cc3ccccc3)c3ccccc23)o1 | 0.428 fold change (inactive)
CCN(CC)C(=O)c1cccc(NC(=O)c2ccc(Cl)cc2Cl)c1 | 0.931 fold change (inactive)
C[C@H]1CN([C@@H](C)CO)C(=O)c2cc(-c3ccc(C#N)cc3)cnc2O[C@H]1CN(C)C(=O)c1ccccc1 | 1.14 fold change (inactive)
C[C@@H]1CN([C@H](C)CO)S(=O)(=O)c2ccc(C#Cc3ccncc3)cc2O[C@@H]1CN(C)C(=O)C1CCOCC1 | 0.732 fold change (inactive)
Nc1ccc(Oc2ccc(Cl)cc2)cc1 | 0.496 fold change (inactive)
CO[C@@H]1CN(C)C(=O)c2cc(NS(=O)(=O)c3ccc(Oc4ccccc4)cc3)ccc2OC[C@H](C)NC[C@@H]1C | 0.882 fold change (inactive)
C[C@@H]1CN([C@H](C)CO)S(=O)(=O)c2ccc(/C=C/c3ccccc3)cc2O[C@@H]1CN(C)C(=O)c1cccnc1 | 1.11 fold change (inactive)
CN(C)CCCOc1nn(Cc2ccccc2)c2ccccc12 | 1.5 fold change (inactive)
Cc1cc(C(C)(C)C)cc(S(=O)(=O)NCCc2ccncc2)c1C | 1.04 fold change (inactive)
C[C@H](CO)N1C[C@H](C)[C@@H](CN(C)C(=O)C2CCOCC2)Oc2cc(C#Cc3ccncc3)ccc2S1(=O)=O | 0.407 fold change (inactive)
COc1cccc(-c2ccc3c(c2)O[C@H](CN(C)C(=O)C2CCOCC2)[C@H](C)CN([C@@H](C)CO)S3(=O)=O)c1 | 0.896 fold change (inactive)
CCCCN(CCCC)C(=O)CN(C)S(=O)(=O)c1ccc2c(c1)n(C)c(=O)c(=O)n2C | 0.906 fold change (inactive)
C[C@@H]1CN([C@@H](C)CO)S(=O)(=O)c2ccc(C#Cc3ccncc3)cc2O[C@@H]1CN(C)C(=O)C1CCOCC1 | 0.563 fold change (inactive)
C[C@H](CO)N1C[C@H](C)[C@H](CN(C)C(=O)C2CCOCC2)Oc2cc(C#Cc3ccncc3)ccc2S1(=O)=O | 0.417 fold change (inactive)
O=C(NCCC1=CCCCC1)c1ccc2c(c1)sc1nc(-c3ccccc3)cn12 | 0.828 fold change (inactive)
CCOC(=O)N1CCC(NC(=O)c2ccc3c(c2)sc2nc(-c4ccccc4)cn23)CC1 | 0.356 fold change (inactive)
Cc1cccc(NC(=O)Nc2ccc3c(c2)C(=O)N(C)[C@@H]2CC[C@@H](CC(=O)NCc4ccccc4Cl)O[C@H]2CO3)c1 | 1.25 fold change (inactive)

Compound | miR-122 fold change
O=C(CN=C1NS(=O)(=O)c2ccccc21)Nc1ccccc1N1CCCCCC1 | 1.09 fold change (inactive)
C[C@H]1CN([C@@H](C)CO)C(=O)c2cc(C#Cc3ccccc3F)cnc2O[C@H]1CN(C)C(=O)C1CCCCC1 | 0.569 fold change (inactive)
O=C(NCc1ccccc1Cl)c1ccc(CNc2c(NC3CCCCC3)c(=O)c2=O)cc1 | 0.171 fold change (inactive)
CCn1cc(C(=O)O)c(=O)c2cc(F)c(N3CCNCC3)nc21 | 0.972 fold change (inactive)
C[C@H]1CN([C@@H](C)CO)S(=O)(=O)c2ccc(C#Cc3ccncc3)cc2O[C@H]1CN(C)C(=O)C1CCOCC1 | 0.373 fold change (inactive)
Cn1c(=O)c(=O)n(C)c2cc(S(=O)(=O)N3CCOCC3)ccc21 | 1.28 fold change (inactive)
O=C(c1ccc(CNc2c(NC3CCCCC3)c(=O)c2=O)cc1)N1CCc2ccccc21 | 0.521 fold change (inactive)
COCC(=O)N(C)C[C@H]1Oc2cc(C#Cc3cccnc3)ccc2S(=O)(=O)N([C@@H](C)CO)C[C@H]1C | 0.983 fold change (inactive)
CN1C(=O)c2cc(NC(=O)c3cccc(F)c3)ccc2OC[C@@H]2O[C@H](CC(=O)O)CC[C@H]21 | 0.958 fold change (inactive)
COCC(=O)N(C)C[C@@H]1Oc2ncc(-c3ccc(C#N)cc3)cc2C(=O)N([C@@H](C)CO)C[C@@H]1C | 1.01 fold change (inactive)
CN(C)CCN1C(=O)c2cccc3cc(N)cc(c23)C1=O | 0.364 fold change (inactive)
C[C@H]1CN([C@@H](C)CO)C(=O)c2cc(C#Cc3ccccc3F)cnc2O[C@@H]1CN(C)C(=O)C1CCCCC1 | 0.164 fold change (inactive)
COc1ccc(S(=O)(=O)N(C)C[C@@H]2Oc3ncc(/C=C/c4ccccc4)cc3C(=O)N([C@@H](C)CO)C[C@@H]2C)cc1 | 0.9 fold change (inactive)
C[C@H]1CN([C@@H](C)CO)S(=O)(=O)c2ccc(C#Cc3ccncc3)cc2O[C@@H]1CN(C)C(=O)C1CCOCC1 | 0.399 fold change (inactive)
CO[C@@H]1CN(C)C(=O)c2cc(NC(=O)c3cccc(Oc4ccccc4)c3)ccc2OC[C@H](C)NC[C@@H]1C | 0.113 fold change (inactive)
C[C@H]1CN([C@@H](C)CO)C(=O)c2cc(-c3ccc(C#N)cc3)cnc2O[C@H]1CN(C)C(=O)Nc1ccc(C(F)(F)F)cc1 | 0.749 fold change (inactive)
CN1C(=O)c2cc(NC(=O)c3cccc(F)c3)ccc2OC[C@H]2O[C@H](CC(=O)O)CC[C@H]21 | 0.909 fold change (inactive)
CO[C@@H]1CN(C)C(=O)c2cc(NC(=O)c3ccc4c(c3)OCO4)ccc2OC[C@H](C)NC[C@@H]1C | 1.02 fold change (inactive)

Tested on: Huh7 miR-122 levels, qRT-PCR, 48 h
Experiment: as above
Settings: not given

Compound | AC40
CCCC#Cc1ccc2c(c1)O[C@H](CN(C)C(=O)c1ccncc1)[C@H](C)CN([C@@H](C)CO)S2(=O)=O | 3.54 µM
Cc1cccc(NC(=O)Nc2ccc3c(c2)C(=O)N(C)[C@@H]2CC[C@H](CC(=O)NCc4ccccc4Cl)O[C@H]2CO3)c1 | 8.38 µM
COCC(=O)N(C)C[C@H]1Oc2cc(-c3ccccc3F)ccc2S(=O)(=O)N([C@H](C)CO)C[C@H]1C | 18.9 µM
COCC(=O)N(C)C[C@H]1Oc2cc(C#Cc3cccnc3)ccc2S(=O)(=O)N([C@H](C)CO)C[C@H]1C | 16.9 µM
CCCC#Cc1ccc2c(c1)O[C@H](CN(C)C(=O)COC)[C@H](C)CN([C@@H](C)CO)S2(=O)=O | 23.9 µM
